Data as given in US11613768B2, “Microbial production of 2-phenylethanol from renewable substrates” (Arizona Board of Regents on behalf of Arizona State …, priority 2017, dated 2023).

What was measured:
E. coli NST74 = assay: Assaying 2PE toxicity: growth challenge with exogenous 2PE; type: cell-based, Escherichia coli
Description: Error bars reported at one standard deviation from triplicate experiments.
The effects of 2PE on E. coli growth rate and yield was determined by monitoring the impacts of its exogenous addition at increasing final concentrations on growing cultures. Approximately 1 ml of an E. coli NST74 seed culture was used to inoculate 50 ml of LB broth in a 250 mL shake flask. When cultures reached OD600˜0.6, 2PE was added to the flasks at an array of final concentrations ranging from 0 to 2 g/L. Culturing then resumed for an additional 6 h with periodic monitoring of OD600.
To assess if 2PE production in these initial strains was perhaps limited by end-product inhibition, a growth challenge study was performed determine to the response of E. coli growth to the addition of exogenous 2PE at a range of increasing final concentrations (FIG. 4).

E. coli = conditions: prior report, Kang et al., 2014; cited from earlier work
ARO10 = target: T1, ARO10 (Saccharomyces cerevisiae, UniProt Q06408); conditions: ARO10 (PPDC), substrate phenylpyruvate; cited from earlier work
T1 sequence (Q06408 1-635): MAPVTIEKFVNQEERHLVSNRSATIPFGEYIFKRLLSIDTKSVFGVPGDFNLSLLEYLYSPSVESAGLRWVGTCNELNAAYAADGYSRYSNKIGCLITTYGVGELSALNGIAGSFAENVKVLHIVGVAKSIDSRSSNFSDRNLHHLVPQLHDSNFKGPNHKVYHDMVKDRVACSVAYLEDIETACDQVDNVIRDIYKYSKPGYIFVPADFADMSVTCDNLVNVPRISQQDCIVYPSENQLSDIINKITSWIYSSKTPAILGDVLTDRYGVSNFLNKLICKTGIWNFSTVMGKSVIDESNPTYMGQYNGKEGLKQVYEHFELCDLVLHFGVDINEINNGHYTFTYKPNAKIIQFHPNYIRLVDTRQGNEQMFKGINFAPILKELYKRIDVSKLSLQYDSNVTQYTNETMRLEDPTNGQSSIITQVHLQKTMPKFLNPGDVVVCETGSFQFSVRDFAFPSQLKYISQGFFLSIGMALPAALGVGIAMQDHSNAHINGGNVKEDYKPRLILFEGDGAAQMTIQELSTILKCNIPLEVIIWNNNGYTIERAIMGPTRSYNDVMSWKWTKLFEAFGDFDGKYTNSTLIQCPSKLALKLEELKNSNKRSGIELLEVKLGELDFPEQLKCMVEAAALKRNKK

TyrB = TyrB (Escherichia coli, UniProt P04693); conditions: TyrB (Phe aminotransferase), substrate phenylpyruvate; cited from earlier work
TyrB, sequence (P04693 whole entry): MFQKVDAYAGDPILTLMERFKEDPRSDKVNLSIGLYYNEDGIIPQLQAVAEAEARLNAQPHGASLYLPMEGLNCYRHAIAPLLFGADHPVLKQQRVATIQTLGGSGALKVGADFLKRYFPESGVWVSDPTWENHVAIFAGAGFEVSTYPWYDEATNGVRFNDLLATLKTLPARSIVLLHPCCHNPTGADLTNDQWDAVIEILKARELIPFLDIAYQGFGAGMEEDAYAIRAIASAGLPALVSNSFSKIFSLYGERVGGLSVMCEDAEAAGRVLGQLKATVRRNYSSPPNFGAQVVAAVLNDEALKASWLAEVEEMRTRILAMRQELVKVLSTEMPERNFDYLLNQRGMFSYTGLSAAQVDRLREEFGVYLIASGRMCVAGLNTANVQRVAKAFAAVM

[1] = exogenous 2PE added at OD600~0.6, LB broth, 6 h monitoring of OD600

OCCc1ccccc1 [2PE, 2-phenylethanol]
toxicity threshold (E. coli NST74; E. coli growth): ~2 g/L | 2PE concentration at which growth rate and yield were reduced (E. coli NST74; [1]): 1 g/L | 2PE concentration at which severe growth inhibition occurred (E. coli NST74; [1]): about 2 g/L | level reported to inhibit E. coli (E. coli): ~1 g/L

O=C(O)C(=O)Cc1ccccc1 [phenylpyruvate]
Km (ARO10): 100 µM | Km (TyrB): 12 µM
